Our source for the TGI values is PubChem BioAssay (NCI).

Some test systems named below: MALME-3M melanoma; HCT-15 colon; SF-539 CNS; NCI-H460 lung; HCT-116 colon; COLO 205 colon; K-562 leukemia; SK-MEL-5 melanoma; CAKI-1 renal; MCF7 breast.
Common to all, as to experiment: DTP human tumour cell line panel, 48 h

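Results reflect a 48-hour exposure of cells in 96-well plates to compound at five concentrations. TGI: concentration producing complete growth inhibition.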 Some results are limits rather than exact numbers.

As for `C/C=C(/I)CBr`, the TGI with MALME-3M melanoma amounted to 31.4 µM; in the assay with HCT-15 colon, 51.2 µM; in the assay on SF-539 CNS it was 32.5 µM; with NCI-H460 lung it was 37.4 µM; in the assay on HCT-116 colon, 27.9 µM; with COLO 205 colon it was 28.2 µM. Also, the TGI is above 100 µM with K-562 leukemia, 29.4 µM with SK-MEL-5 melanoma and 2.85 µM in the assay on CAKI-1 renal.
As to `[N-]=[N+]=NC(c1cn(C2CC(O)C(CO)O2)c(=O)[nH]c1=O)C(Br)Br` (stereo not given), the concentration for total growth inhibition (TGI) in the assay on MALME-3M melanoma, with HCT-15 colon, with SF-539 CNS, in the assay on NCI-H460 lung, with HCT-116 colon and in the assay with COLO 205 colon was above 100 µM throughout. The TGI in the assay with K-562 leukemia, with SK-MEL-5 melanoma and in the assay with CAKI-1 renal was above 100 µM throughout.
Turning to `CCOc1ccc2[nH]c3c(C)c4ccncc4c(C)c3c2c1`, the TGI in the assay with MALME-3M melanoma is 2.83 µM; in the assay on HCT-15 colon, 1.61 µM; in the assay with SF-539 CNS, 2.94 µM; in the assay on NCI-H460 lung, 1.68 µM; in the assay on HCT-116 colon it was 1.78 µM; in the assay with COLO 205 colon, 3.04 µM. For the same compound, the TGI with K-562 leukemia is above 100 µM; in the assay with SK-MEL-5 melanoma, 2.86 µM; in the assay on CAKI-1 renal it was 3.06 µM.
With `Brc1ccc(C[P+]2(c3ccccc3)CCCCC2)cc1`, the TGI with MALME-3M melanoma, with HCT-15 colon, with SF-539 CNS, in the assay on NCI-H460 lung, in the assay on HCT-116 colon and in the assay with COLO 205 colon was above 100 µM each time. Also, the total growth inhibition concentration (TGI) in the assay with K-562 leukemia was above 100 µM; in the assay on SK-MEL-5 melanoma it was 39.1 µM.
As to `COC(=O)c1ccc(/C=C2\Oc3ccccc3C2=O)cc1`, the TGI with HCT-15 colon, with SF-539 CNS, with NCI-H460 lung, in the assay on HCT-116 colon, in the assay on MCF7 breast and in the assay on COLO 205 colon was above 100 µM in each case. Further, the TGI with SK-MEL-5 melanoma and in the assay with CAKI-1 renal was above 100 µM in each case.
In the case of `COc1ccc(C(=O)O[C@H]2[C@@H]3C=CO[C@@H](OC4OC(CO)C(O)C(O)C4O)[C@@H]3[C@@]3(CO)O[C@@H]23)cc1O` (stereo not given in full), the concentration for total growth inhibition (TGI) in the assay with MALME-3M melanoma, in the assay with SF-539 CNS, in the assay with NCI-H460 lung, in the assay with COLO 205 colon, in the assay on K-562 leukemia and in the assay with SK-MEL-5 melanoma was above 100 µM in each case. This compound yielded a TGI with CAKI-1 renal above 100 µM.
`NC(=S)/N=C(/c1nc2ccc(Cl)cc2[nH]c1=O)C(O)c1ccccc1Cl` (stereo not given): the TGI with MALME-3M melanoma, with HCT-15 colon, in the assay with SF-539 CNS, with NCI-H460 lung, in the assay with COLO 205 colon and with K-562 leukemia was above 100 µM in each case.
As to `Cc1c2c3ccccc3nc-2n(C)c2ccccc12`, the TGI with MALME-3M melanoma was 5.98 µM; with HCT-15 colon, 11.3 µM; in the assay on SF-539 CNS, 10.8 µM; with NCI-H460 lung, 2.85 µM; in the assay with HCT-116 colon, above 100 µM; in the assay on MCF7 breast, 5.98 µM. Further, the TGI in the assay on K-562 leukemia came out at 5.28 µM; in the assay with SK-MEL-5 melanoma, 2.2 µM.
As for `COc1ccc(-n2c(N)c(C#N)[nH]c2=O)cc1`, the TGI in the assay on MALME-3M melanoma, with HCT-15 colon, in the assay with SF-539 CNS, in the assay on NCI-H460 lung, in the assay with HCT-116 colon and with COLO 205 colon was above 10 µM throughout. The TGI in the assay with K-562 leukemia and with SK-MEL-5 melanoma was above 10 µM each time.
Regarding `CN(C(=O)C12C3C4C5C3C1(C(=O)C13C6C7C8C6C1C8C73)C5C42)C(C)(C)C` (stereo not given), the TGI was above 50 µM in the assay with MALME-3M melanoma; above 32.2 µM with HCT-15 colon; above 50 µM with SF-539 CNS; above 50 µM in the assay on NCI-H460 lung; 18.5 µM in the assay on HCT-116 colon; above 50 µM in the assay with COLO 205 colon. Moreover, the values for the TGI with K-562 leukemia, in the assay with SK-MEL-5 melanoma and with CAKI-1 renal were above 47.3 µM, above 50 µM and above 50 µM, respectively.
As to `O=CNNC(=O)Nc1cccc2ccccc12`, the concentration for total growth inhibition (TGI) in the assay with MALME-3M melanoma, in the assay on HCT-15 colon, in the assay on SF-539 CNS, in the assay on NCI-H460 lung, in the assay on HCT-116 colon and in the assay on MCF7 breast was above 100 µM throughout. For the same compound, the TGI with COLO 205 colon, in the assay with K-562 leukemia and in the assay with SK-MEL-5 melanoma was above 100 µM throughout.
Turning to `COc1ccc(N=NC(C(=O)c2ccccc2)C(=O)c2ccccc2)cc1`, the TGI is 97 µM in the assay with MALME-3M melanoma; above 100 µM in the assay on HCT-15 colon; 84.9 µM in the assay on SF-539 CNS; 68.4 µM in the assay with NCI-H460 lung; 38.8 µM in the assay on HCT-116 colon; above 100 µM with COLO 205 colon. Also, the TGI in the assay on K-562 leukemia was above 100 µM; in the assay on SK-MEL-5 melanoma, 34 µM; with CAKI-1 renal, above 100 µM.
Regarding `COC(=O)/C=C(C)/C=C/C1OC(C)OCC1O` (stereo not given), the TGI with MALME-3M melanoma, in the assay on HCT-15 colon, in the assay on SF-539 CNS, with NCI-H460 lung, in the assay with COLO 205 colon and in the assay on K-562 leukemia was above 100 µM each time. Moreover, the TGI in the assay with SK-MEL-5 melanoma and in the assay with CAKI-1 renal was above 100 µM in each case.
For the compound `CCOC(=O)C(=O)Nc1ccccc1C`, the TGI in the assay on MALME-3M melanoma, in the assay with HCT-15 colon, in the assay with SF-539 CNS, in the assay with NCI-H460 lung, in the assay with HCT-116 colon and in the assay with COLO 205 colon was above 100 µM throughout. Also, the TGI with K-562 leukemia, in the assay with SK-MEL-5 melanoma and in the assay on CAKI-1 renal was above 100 µM each time.
In the case of `CS(=O)(=O)c1nc(-c2cc3c(c(S(C)(=O)=O)n2)CCCC3)cc2c1CCCCC2`, the TGI with HCT-15 colon, in the assay with HCT-116 colon, with COLO 205 colon, in the assay with SK-MEL-5 melanoma and with CAKI-1 renal was above 100 µM each time.
In the case of `N#CN/C(N)=N/C/N=C(\N)NC#N`, the concentration for total growth inhibition (TGI) in the assay on MALME-3M melanoma is above 100 µM; with HCT-15 colon it was 50.2 µM; with SF-539 CNS it was above 100 µM; in the assay on NCI-H460 lung, above 100 µM; in the assay with HCT-116 colon, above 100 µM; in the assay with COLO 205 colon, above 100 µM. Besides, the TGI with K-562 leukemia, with SK-MEL-5 melanoma and with CAKI-1 renal was above 100 µM throughout.
